Laboratory results from US20120040896A1, “COMPOSITIONS, METHODS AND USES FOR MODULATION OF BRCA 1” (THE REGENTS OF THE UNIVERSITY OF COLORADO, priority 2008, published 2012).
Where a SMILES comes first, the peptide text is derived from it. The star is where a group is joined. Cbz = O=C(OCc1ccccc1)*

Experiments:
Assay type in all cases: cell-based, human
[1] = test system: BARD1; test: Immunoblot of BARD1 protein levels in breast carcinoma cells; conditions: for effect of pretreatment on E2-induced accumulation of BARD1 protein: MCF7, steroid depleted, pretreatment before E2; for BARD1 protein levels under proteasome inhibition: MCF7, steroid depleted medium, 0.5, 4 or 8 hours
Procedure: (§1) MCF7 cells were obtained from the American Type Culture Collection (#HTB-22). T47D cells were provided by Baylor College of Medicine. Both lines were normally maintained at 37° C. with 5% CO2 in DMEM with 1 mM L-glutamine (Gibco) supplemented with 10% Fetalclone serum (HyClone) and 1% non-essential amino acids (Gibco). For steroid depleted conditions (denoted as CSS), cells were cultured in phenol-free DMEM with 1 mM L-glutamine and 25 mM HEPES supplemented with 10% charcoal/dextran treated fetal bovine serum (Gemini Bioproducts). 17-β-estradiol and MG132 were obtained from Sigma-Aldrich. Cycloheximide, U0126, and p38 inhibitor were obtained from Calbiochem. ICI 182780 was obtained from Tocris Biosciences. LY294002 was obtained from Cell Signaling Technology.
(§2) Whole cell lysates were prepared by washing cells twice with PBS and then scraping into ice-cold PBS. Pelleted cells were resuspended in modified RIPA buffer (50 mM Tris base, 150 mM NaCl, 2 mM EDTA, 1% Triton X-100, 0.5% Na-deoxycholate, 0.1% SDS, 50 mM NaF, 5 mM Na3VO4, plus Roche protease inhibitor tablets). Lysates were incubated for 30 minutes on ice, clarified by centrifugation, and protein concentration determined by Bradford assay (BioRad). Where indicated, lysates harvested without phosphatase inhibitors were treated with λ-phosphatase (New England Biolabs) according to manufacturer's instructions. 100 μg of total protein was loaded per lane for Tris-glycine SDS-PAGE. Samples were transferred to PVDF membrane (Millipore) for 200 volt-hours at 50 V constant at 16° C. Membranes were blocked in 5% dry non-fat milk (Carnation) dissolved in either PBS or TBS (25 mM Tris pH 8.0, 135 mM NaCl, 2.5 mM KCl). Primary antibody incubations were performed overnight at 4° C. diluted in either 0.5% dry non-fat milk/PBS-Tween-20 0.1% or in 3% BSA (Santa Cruz Biotechnology)/TBS-Tween-20 0.1%. Antibody suppliers are: BRCA1 (Ab-4 and Ab-1, Calbiochem); BARD1 (Bethyl Laboratories); Lamin A/C, phospho-(Ser/Thr) Akt Substrate, phospho-5473 Akt, and Akt (Cell Signaling Technology); Cyclin D1 (Lab Vision Corp.); Tubulin (Chemicon). Secondary antibodies were obtained from Amersham/GE Healthcare. Densitometry was performed on 600 dpi TIFF scans of Western blot films with Quantity One software (BioRad). Density values for BRCA1 and BARD1 in each sample were normalized by the value of the corresponding Lamin A/C density as a control for loading.

[2] = test system: BRCA1; test: Immunoblot of BRCA1 protein levels in breast carcinoma cells; conditions: for effect of pretreatment on E2-induced accumulation of BRCA1 protein: MCF7, steroid depleted, pretreatment before E2; for BRCA1 protein levels under proteasome inhibition: MCF7, steroid depleted medium, 0.5, 4 or 8 hours
Procedure: as §1, §2

[3] = test system: Akt; test: Immunoblot of phosphorylated Akt (pS473), Akt activation; conditions: MCF7, steroid depleted medium, after treatment
Procedure: as §1
Whole cell lysates were prepared by washing cells twice with PBS and then scraping into ice-cold PBS. Pelleted cells were resuspended in modified RIPA buffer (50 mM Tris base, 150 mM NaCl, 2 mM EDTA, 1% Triton X-100, 0.5% Na-deoxycholate, 0.1% SDS, 50 mM NaF, 5 mM Na3VO4, plus Roche protease inhibitor tablets). Lysates were incubated for 30 minutes on ice, clarified by centrifugation, and protein concentration determined by Bradford assay (BioRad). […] Densitometry was performed on 600 dpi TIFF scans of Western blot films with Quantity One software (BioRad). […]

SMILES | effect of pretreatment on E2-induced accumulation of BARD1 protein [1] | effect of pretreatment on E2-induced accumulation of BRCA1 protein [2] | BARD1 protein levels under proteasome inhibition [1] | Akt activation (phosphorylated Akt pS473) [3] | BRCA1 protein levels under proteasome inhibition [2]
C[C@]12CC[C@@H]3c4ccc(O)cc4C[C@@H](CCCCCCCCC[S+]([O-])CCCC(F)(F)C(F)(F)F)[C@H]3[C@@H]1CC[C@@H]2O (some centres unmarked) [ICI 182780] | abolished | abolished | – | – | –
N#CC(=C(/N)Sc1ccccc1N)/C(C#N)=C(/N)Sc1ccccc1N [MEK 1/2] | – | no effect | – | – | –
CC(C)C[C@@H](C=O)NC(=O)[C@H](CC(C)C)NC(=O)[C@H](CC(C)C)NC(=O)OCc1ccccc1 [MG132] (Cbz-Leu-Leu-Leu-aldehyde) | – | – | accumulation | dramatic activation | accumulation
CC(C)C[C@H](NC(=O)[C@H](Cc1ccccc1)NC(=O)c1cnccn1)B(O)O [bortezomib] | – | – | rapidly increased | only minor activation | rapidly increased
C[C@@H]1C[C@@H]([C@H](O)CC2CC(=O)NC(=O)C2)C(=O)[C@@H](C)C1 [cycloheximide, Cycloheximide] | did not prevent | did not prevent | – | – | –
